From ChEMBL document CHEMBL1132169 (J Med Chem, 1999)

What was measured:
[1] = biological target: T1, Sodium-dependent dopamine transporter (Rattus norvegicus, UniProt P23977); assay: Inhibition of dopamine uptake into rat striatal tissue, using [3H]- dopamine as the radioligand.; assay type: tissue-based, Striatum
[2] = biological target: T1, Sodium-dependent dopamine transporter; assay: Inhibitory binding activity against rat striatal tissue using [3H][…] as the radioligand.; assay type: tissue-based, Striatum
[3] = biological target: Sodium-dependent dopamine transporter (Rattus norvegicus) (UniProt P23977); assay: Discrimination ratio of compound is the ratio of inhibitory activity against [3H]dopamine uptake over [3H][…] binding
Sequence of Sodium-dependent dopamine transporter (Rattus norvegicus) (P23977 whole entry): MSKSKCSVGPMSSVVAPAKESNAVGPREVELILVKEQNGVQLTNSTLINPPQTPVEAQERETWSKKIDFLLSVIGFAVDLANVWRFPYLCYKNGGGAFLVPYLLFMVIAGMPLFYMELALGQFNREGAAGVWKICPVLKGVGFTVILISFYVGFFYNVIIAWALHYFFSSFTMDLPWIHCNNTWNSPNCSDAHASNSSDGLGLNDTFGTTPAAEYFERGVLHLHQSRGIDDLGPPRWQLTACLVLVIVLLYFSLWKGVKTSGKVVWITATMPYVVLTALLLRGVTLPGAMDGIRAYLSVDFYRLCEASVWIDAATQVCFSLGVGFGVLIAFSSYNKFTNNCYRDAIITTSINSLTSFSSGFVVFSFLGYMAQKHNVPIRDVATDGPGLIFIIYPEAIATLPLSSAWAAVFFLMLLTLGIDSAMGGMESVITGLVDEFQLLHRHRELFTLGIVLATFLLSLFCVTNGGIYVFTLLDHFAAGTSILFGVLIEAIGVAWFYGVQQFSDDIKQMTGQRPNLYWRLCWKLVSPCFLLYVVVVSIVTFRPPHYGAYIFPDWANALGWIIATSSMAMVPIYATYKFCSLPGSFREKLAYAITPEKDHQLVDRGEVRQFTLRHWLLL

T1 sequence (P23977 whole entry): as above

Structure (SMILES)	IC50 [1]	IC50 [2]	Discrimination ratio [3]
COc1ccc(C2C3CCC(CC3)C2CN)cc1 (stereo not given)	1500 nM	249 nM	6
NCC1C2CCC(C2)C1c1ccccc1 (stereo in doubt; 13a) [listing 1 of 2 here]	3500 nM	816 nM	
NCC1C2CCC(CC2)C1c1ccc(Cl)cc1 (stereo in doubt; 5c) [listing 1 of 2 here]			5.2
NCC1C2CCC(C2)C1c1ccc(Cl)c(Cl)c1 (stereo in doubt; 11d) [listing 1 of 2 here]			2.9
COc1ccc(C2C3CCC(C3)C2CN)cc1 (stereo in doubt; 9g) [listing 1 of 2 here]			4.8
CN(C)CC1C2CCC(CC2)C1c1ccc(Cl)c(Cl)c1 (stereo in doubt; 8d) [listing 1 of 2 here]			2.1
NCC1C2CCC(CC2)C1c1cccc(Cl)c1 (stereo in doubt; 5b) [listing 1 of 2 here]	960 nM	204 nM	
NCC1C2CCC(C2)C1c1ccc(Cl)cc1 (stereo in doubt; 15c) [listing 1 of 2 here]			4.5
CN(C)CC1C2CCC(CC2)C1c1ccc(Cl)c(Cl)c1 (stereo in doubt; 8d) [listing 2 of 2 here]	29.3 nM	14.2 nM	
NCC1C2CCC(CC2)C1c1ccc(Cl)c(Cl)c1 (stereo in doubt; 7d) [listing 1 of 2 here]			1.6
COc1ccc(C2C3CCC(C3)C2CN)cc1 (stereo in doubt; 11g) [listing 1 of 2 here]	7120 nM	1700 nM	
COc1ccc(C2C3CCC(C3)C2CN)cc1 (stereo in doubt; 13g) [listing 1 of 2 here]	2260 nM	495 nM	
CN(C)CC1C2CCC(C2)C1c1ccccc1 (stereo in doubt; 10a) [listing 1 of 2 here]	1100 nM	515 nM	
NCC1C2CCC(C2)C1c1ccc(Cl)cc1 (stereo in doubt; 9c) [listing 1 of 2 here]			5
COc1cccc(C2C3CCC(C3)C2CN)c1 (stereo in doubt; 11f) [listing 1 of 2 here]	6560 nM	2010 nM	
NCC1C2CCC(CC2)C1c1ccccc1 (stereo in doubt; 5a) [listing 1 of 2 here]	5930 nM	1200 nM	
COc1ccccc1C1C2CCC(C2)C1CN (stereo in doubt; 11e) [listing 1 of 2 here]			5.3
NCC1C2CCC(C2)C1c1ccccc1 (stereo in doubt; 15a) [listing 1 of 2 here]	875 nM	251 nM	
NCC1C2CCC(C2)C1c1ccc(Cl)c(Cl)c1 (stereo in doubt; 13d) [listing 1 of 2 here]	98.7 nM	21.3 nM	
CN(C)CC1C2CCC(CC2)C1c1cccc(Cl)c1 (stereo in doubt; 6b) [listing 1 of 2 here]	186 nM	36.8 nM	
CN(C)CC1C2CCC(C2)C1c1ccccc1 (stereo in doubt; 10a) [listing 2 of 2 here]			2.1
NCC1C2CCC(C2)C1c1ccc(Cl)cc1 (stereo in doubt; 13c) [listing 1 of 2 here]	348 nM	65.3 nM	
CN(C)CC1C2CCC(CC2)C1c1ccccc1 (stereo in doubt; 6a) [listing 1 of 2 here]			4.4
COc1cccc(C2C3CCC(C3)C2CN)c1 (stereo in doubt; 11f) [listing 2 of 2 here]			3.3
NCC1C2CCC(C2)C1c1ccccc1 (stereo in doubt; 9a) [listing 1 of 2 here]			6.5
NCC1C2CCC(C2)C1c1ccc(Cl)cc1 (stereo in doubt; 9c) [listing 2 of 2 here]	230 nM	46 nM	

Structure (SMILES)	IC50 [1]	IC50 [2]	Discrimination ratio [3]
CN(C)CC1C2CCC(CC2)C1c1ccccc1 (stereo in doubt; 6a) [listing 2 of 2 here]	840 nM	191 nM	
NCC1C2CCC(CC2)C1c1ccc(Cl)c(Cl)c1 (stereo in doubt; 5d) [listing 1 of 2 here]			2.6
COc1ccc(C2C3CCC(C3)C2CN)cc1 (stereo in doubt; 11g) [listing 2 of 2 here]			4.2
NCC1C2CCC(C2)C1c1ccc(Cl)cc1 (stereo in doubt; 11c) [listing 1 of 2 here]	593 nM	207 nM	
NCC1C2CCC(C2)C1c1ccc(Cl)cc1 (stereo in doubt; 11c) [listing 2 of 2 here]			2.9
COc1ccccc1C1C2CCC(C2)C1CN (stereo in doubt; 11e) [listing 2 of 2 here]	7860 nM	1480 nM	
COc1ccc(C2C3CCC(C3)C2CN)cc1 (stereo in doubt; 9g) [listing 2 of 2 here]	5550 nM	1160 nM	
NCC1C2CCC(C2)C1c1ccccc1 (stereo in doubt; 13a) [listing 2 of 2 here]			4.3
NCC1C2CCC(CC2)C1c1ccccc1 (stereo in doubt; 7a) [listing 1 of 2 here]			5.5
NCC1C2CCC(C2)C1c1ccc(Cl)c(Cl)c1 (stereo in doubt; 11d) [listing 2 of 2 here]	93.6 nM	32.7 nM	
NCC1C2CCC(C2)C1c1ccc(Cl)cc1 (stereo in doubt; 15c) [listing 2 of 2 here]	34.9 nM	7.7 nM	
CN(C)CC1C2CCC(CC2)C1c1ccc(Cl)c(Cl)c1 (stereo in doubt; 6d) [listing 1 of 2 here]			2.6
CN(C)CC1C2CCC(CC2)C1c1cccc(Cl)c1 (stereo in doubt; 8b) [listing 1 of 2 here]	283 nM	86 nM	
NCC1C2CCC(C2)C1c1cccc(Cl)c1 (stereo in doubt; 11b) [listing 1 of 2 here]	780 nM	239 nM	
CN(C)CC1C2CCC(CC2)C1c1cccc(Cl)c1 (stereo in doubt; 8b) [listing 2 of 2 here]			3.3
CN(C)CC1C2CCC(CC2)C1c1ccc(Cl)c(Cl)c1 (stereo in doubt; 6d) [listing 2 of 2 here]	56.3 nM	21.3 nM	
NCC1C2CCC(CC2)C1c1cccc(Cl)c1 (stereo in doubt; 5b) [listing 2 of 2 here]			4.7
NCC1C2CCC(C2)C1c1cccc(Cl)c1 (stereo in doubt; 9b) [listing 1 of 2 here]			5.1
NCC1C2CCC(C2)C1c1ccccc1 (stereo in doubt; 11a) [listing 1 of 2 here]	8850 nM	2900 nM	
NCC1C2CCC(C2)C1c1ccccc1 (stereo in doubt; 11a) [listing 2 of 2 here]			3.1
NCC1C2CCC(CC2)C1c1cccc(Cl)c1 (stereo in doubt; 7b) [listing 1 of 2 here]	430 nM	117 nM	
NCC1C2CCC(CC2)C1c1ccc(Cl)cc1 (stereo in doubt; 7c) [listing 1 of 2 here]	68.3 nM	12.9 nM	
NCC1C2CCC(C2)C1c1cccc(Cl)c1 (stereo in doubt; 11b) [listing 2 of 2 here]			3.3
NCC1C2CCC(CC2)C1c1ccc(Cl)cc1 (stereo in doubt; 7c) [listing 2 of 2 here]			5.3
CN(C)CC1C2CCC(CC2)C1c1ccccc1 (stereo in doubt; 8a) [listing 1 of 2 here]	980 nM	313 nM	
CN(C)CC1C2CCC(CC2)C1c1cccc(Cl)c1 (stereo in doubt; 6b) [listing 2 of 2 here]			5.1

Structure (SMILES)	IC50 [1]	IC50 [2]	Discrimination ratio [3]
NCC1C2CCC(C2)C1c1ccc(Cl)cc1 (stereo in doubt; 13c) [listing 2 of 2 here]			5.3
COc1ccc(C2C3CCC(CC3)C2CN(C)C)cc1 (stereo not given)	1430 nM	380 nM	3.8
COc1cccc(C2C3CCC(C3)C2CN)c1 (stereo in doubt; 9f) [listing 1 of 2 here]	29300 nM	8820 nM	
CN(C)CC1C2CCC(C2)C1c1ccccc1 (stereo in doubt; 14a) [listing 1 of 2 here]			1.3
NCC1C2CCC(CC2)C1c1ccc(N)cc1 (stereo not given)	704 nM	160 nM	4.4
CN(C)CC1C2CCC(C2)C1c1ccccc1 (stereo in doubt; 14a) [listing 2 of 2 here]	2750 nM	2140 nM	
NCC1C2CCC(C2)C1c1ccccc1 (stereo in doubt; 15a) [listing 2 of 2 here]			3.5
NCC1C2CCC(CC2)C1c1ccccc1 (stereo in doubt; 5a) [listing 2 of 2 here]			5
NCC1C2CCC(C2)C1c1ccc(Cl)c(Cl)c1 (stereo in doubt; 9d) [listing 1 of 2 here]	58 nM	11.6 nM	
NCC1C2CCC(CC2)C1c1cccc(Cl)c1 (stereo in doubt; 7b) [listing 2 of 2 here]			3.7
NCC1C2CCC(CC2)C1c1ccc(Cl)c(Cl)c1 (stereo in doubt; 7d) [listing 2 of 2 here]	34 nM	21.5 nM	
COc1ccccc1C1C2CCC(C2)C1CN (stereo in doubt; 9e) [listing 1 of 2 here]			3.1
CN(C)CC1C2CCC(CC2)C1c1ccccc1 (stereo in doubt; 8a) [listing 2 of 2 here]			3.1
CN(C)CC1C2CCC(C2)C1c1ccccc1 (stereo in doubt; 12a) [listing 1 of 2 here]			1.7
COc1ccccc1C1C2CCC(C2)C1CN (stereo in doubt; 9e) [listing 2 of 2 here]	36600 nM	11600 nM	
COc1cccc(C2C3CCC(C3)C2CN)c1 (stereo in doubt; 9f) [listing 2 of 2 here]			3.3
NCC1C2CCC(CC2)C1c1ccc(Cl)c(Cl)c1 (stereo in doubt; 5d) [listing 2 of 2 here]	97.5 nM	37.5 nM	
NCC1C2CCC(CC2)C1c1ccc(Cl)cc1 (stereo in doubt; 5c) [listing 2 of 2 here]	375 nM	71.4 nM	
NCC1C2CCC(CC2)C1c1ccccc1 (stereo in doubt; 7a) [listing 2 of 2 here]	1480 nM	270 nM	
NCC1C2CCC(C2)C1c1ccc(Cl)c(Cl)c1 (stereo in doubt; 9d) [listing 2 of 2 here]			5
NCC1C2CCC(C2)C1c1ccc(Cl)c(Cl)c1 (stereo in doubt; 13d) [listing 2 of 2 here]			4.6
CN(C)CC1C2CCC(C2)C1c1ccccc1 (stereo in doubt; 12a) [listing 2 of 2 here]	4330 nM	2510 nM	
NCC1C2CCC(C2)C1c1ccccc1 (stereo in doubt; 9a) [listing 2 of 2 here]	2220 nM	340 nM	
NCC1C2CCC(C2)C1c1cccc(Cl)c1 (stereo in doubt; 9b) [listing 2 of 2 here]	758 nM	149 nM	
COc1ccc(C2C3CCC(C3)C2CN)cc1 (stereo in doubt; 13g) [listing 2 of 2 here]			4.6
